Measurements published in paper PMC9960633, “Novel Silver Complexes Based on Phosphanes and Ester Derivatives of Bis(pyrazol-1-yl)acetate Ligands Targeting TrxR: New Promising Chemotherapeutic Tools Relevant to SCLC Management” (International Journal of Molecular Sciences, 2023).

What was measured:
[1] = test system: HCT-15; test: MTT cytotoxicity, 2D culture, colon carcinoma; format: cell-based, human; settings: HCT-15, 72 h, MTT test
Description: (§1) The Ag(I) complexes 3–5 and the corresponding uncoordinated ligands 1 and 2 were evaluated for their cytotoxic activity against various human cancer cell lines representative of different solid tumors. In particular, the in-house cancer cell panel contained examples of human colon (HCT-15), pancreatic (PSN-1), cervical (A431), breast (MDA-MB-231) and ovarian (2008) carcinoma as well as of SCLC (U1285). For comparison purposes, the cytotoxicity of the reference metal-based chemotherapeutic drug cisplatin was assessed under the same experimental conditions.
(§2) Ag(I) complexes and the corresponding uncoordinated ligands were dissolved in DMSO just before the experiment, and a calculated amount of drug solution was added to the cell growth medium to a final solvent concentration of 0.5%, which had no detectable effects on cell viability. Cisplatin was dissolved in 0.9% sodium chloride solution. MTT (3-(4,5-dimethylthiazol-2-yl)-2,5-diphenyltetrazolium bromide) and cisplatin were obtained from Sigma Chemical Co, St. Louis, MO, USA.
(§3) Human SCLC (U1285), breast (MDA-MB-231), colon (HCT-15), and pancreatic (PSN-1) carcinoma cell lines were obtained by American Type Culture Collection (ATCC, Rockville, MD, USA). A431 are human cervical carcinoma cells kindly provided by Professor F. Zunino (Division of Experimental Oncology B, Istituto Nazionale dei Tumori, Milan, Italy). The 2008 cells and the cisplatin-resistant variant, C13* cells, are human ovarian adenocarcinoma cell lines that were kindly provided by Professor G. Marverti (Department of Biomedical Science of Modena University, Modena, Italy). Cell lines were maintained in the logarithmic phase at 37 °C in a 5% carbon dioxide atmosphere using the following culture media containing 10% fetal calf serum (EuroClone, Milan, Italy), antibiotics (50 units/mL penicillin and 50 μg/mL streptomycin) and 2 mM l-glutamine: (i) RPMI-1640 medium (EuroClone, Milan, Italy) for HCT-15, A431, PSN-1, U1285, 2008 and C13* cells; (ii) DMEM (EuroClone, Milan, Italy) for MDA-MB-231 cells.
(§4) The growth inhibitory effect toward tumor cells was evaluated by means of MTT assay. Briefly, 3–8 × 10^3 cells/well, dependent upon the growth characteristics of the cell line, were seeded in 96-well microplates in growth medium (100 μL). After 24 h, the medium was removed and replaced with a fresh one containing the compound to be studied at the appropriate concentration. Triplicate cultures were established for each treatment. After 72 h, each well was treated with 10 μL of a 5 mg/mL MTT saline solution, and following 5 h of incubation, 100 μL of a sodium dodecyl sulfate (SDS) solution in HCl 0.01 M was added. After overnight incubation, cell growth inhibition was detected by measuring the absorbance of each well at 570 nm using a Bio-Rad 680 microplate reader. Mean absorbance for each drug dose was expressed as a percentage of the control untreated well absorbance and plotted vs. drug concentration. IC50 values, the drug concentrations that reduce the mean absorbance at 570 nm to 50% of those in the untreated control wells, were calculated by the four-parameter logistic (4-PL) model. Evaluation was based on means from at least four independent experiments.

[2] = test system: PSN-1; test: MTT cytotoxicity, 2D culture, pancreatic carcinoma; format: cell-based; settings: Homo sapiens, PSN1; PSN-1, 72 h, MTT test
Description: as §1, §2, §3
The growth inhibitory effect toward tumor cells was evaluated by means of MTT assay. Briefly, 3–8 × 10^3 cells/well, dependent upon the growth characteristics of the cell line, were seeded in 96-well microplates in growth medium (100 μL). After 24 h, the medium was removed and replaced with a fresh one containing the compound to be studied at the appropriate concentration. Triplicate cultures were established for each treatment. […] After overnight incubation, cell growth inhibition was detected by measuring the absorbance of each well at 570 nm using a Bio-Rad 680 microplate reader. Mean absorbance for each drug dose was expressed as a percentage of the control untreated well absorbance and plotted vs. drug concentration. […]

[3] = test system: A431; test: MTT cytotoxicity, 2D culture, cervical carcinoma; format: cell-based, human; settings: A431, 72 h, MTT test
Description: as §1, §2, §3, §4

[4] = test system: U1285; test: MTT cytotoxicity, 2D culture, SCLC; format: cell-based, human; settings: U1285, 72 h, MTT test
Description: as §1, §2, §3, §4

[5] = test system: MDA-MB-231; test: MTT cytotoxicity, 2D culture, breast carcinoma; format: cell-based, human; settings: MDA-MB-231, 72 h, MTT test
Description: as §1, §2, §3, §4

[6] = test system: 2008; test: MTT cytotoxicity, 2D culture, ovarian carcinoma; format: cell-based, human; settings: 2008, 72 h, MTT test
Description: as §1, §2, §3, §4

[7] = test system: C13* cells; test: MTT cytotoxicity, cisplatin-resistant ovarian adenocarcinoma; format: cell-based, human; settings: 72 h, MTT test
Text: The antiproliferative activity of the Ag(I) complexes 3–5 was also investigated in an additional cell line selected for its resistance to cisplatin, the human ovarian adenocarcinoma C13* cells. These cells were suitably selected after a cisplatin chronic treatment and are characterized by several mechanisms accounting for their resistance to cisplatin; these include (i) a reduced intracellular drug accumulation, (ii) high cellular levels of glutathione and metallothioneins, (iii) the enhanced repair of platinum-DNA adducts, and (iv) an overexpression of the Trx system.
Cytotoxicity was assessed after 72 h of drug treatment by MTT test, and the IC50 and RF values (RF = resistance factor, defined as the ratio of the IC50 of resistant cells over the IC50 of sensitive ones) are reported in Table 1.
as §3, §4

[8] = test system: HEK293 cells; test: MTT cytotoxicity, non-cancerous cells; format: cell-based; settings: Homo sapiens, 72 h, MTT test
Description: One of the main drawbacks of chemotherapeutic drugs is the possible toxic effect toward non-cancerous cells, and we measured the cytotoxicity of Ag(I) complexes against non-cancerous HEK293 cells (see Table 1). For all Ag(I) complexes, calculated IC50 values were higher than those obtained on average against tumor cells, thus indicating for this class of metal complexes a slightly preferential cytotoxicity against human cancer cells.
as §4

[9] = biological target: T1, TrxR (Homo sapiens, UniProt Q16881); test: TrxR activity in treated U1285 cells; format: cell-based; settings: 2 µM, 24 h
T1 construct: hampering TrxR activity when tested in U1285 cell cultures; endogenous in cells; host or cells: U1285 human small-cell lung carcinoma cells
T1 sequence (Q16881 151-649 limits assumed): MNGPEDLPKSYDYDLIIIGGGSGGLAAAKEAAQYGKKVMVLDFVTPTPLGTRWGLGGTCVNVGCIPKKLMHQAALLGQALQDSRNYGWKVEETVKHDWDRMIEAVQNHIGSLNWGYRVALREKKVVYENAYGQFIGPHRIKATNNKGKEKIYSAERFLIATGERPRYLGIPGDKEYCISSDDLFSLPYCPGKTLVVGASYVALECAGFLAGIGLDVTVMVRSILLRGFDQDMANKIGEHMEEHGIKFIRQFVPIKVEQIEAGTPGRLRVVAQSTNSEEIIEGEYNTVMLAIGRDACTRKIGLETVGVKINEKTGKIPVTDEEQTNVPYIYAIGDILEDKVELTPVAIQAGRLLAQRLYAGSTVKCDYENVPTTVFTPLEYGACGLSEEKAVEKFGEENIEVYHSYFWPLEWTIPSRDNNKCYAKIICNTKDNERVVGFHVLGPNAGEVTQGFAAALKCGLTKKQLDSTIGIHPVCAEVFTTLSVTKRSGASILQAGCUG
Description: On the other hand, Ag(I) compounds 4 and 5 were as effective or even better than auranofin in hampering TrxR activity when tested in U1285 cell cultures.
At the end of incubation time, cells were collected, washed with ice-cold PBS and centrifuged at […]. Each sample was then lysed with RIPA buffer modified as follows: 150 mM NaCl, 50 mM Tris–HCl, 1% Triton X-100, 1% SDS, 1% DOC, 1 mM NaF, 1 mM EDTA, and immediately before use, an anti-protease cocktail (Roche, Basel, Switzerland) containing PMSF was added. Samples were tested for TrxR activity as above described.
Figure 2 TrxR inhibition. (A) TrxR1 activity was assayed by measuring NADPH-dependent reduction of DTNB at 412 nm as described in the Experimental Section. (a) 50% inhibition concentration (IC50), Error bars indicate S.D. (B) U1285 cells were incubated for 24 h with the tested compounds (2 µM). Subsequently, cells were washed twice with PBS and lysed. TrxR activity was tested by measuring NADPH-dependent reduction of DTNB at 412 nm. Error bars indicate SD. * p < 0.05; ** p < 0.01.

[10] = test system: U1285 cancer cell spheroids; test: 3D spheroid cytotoxicity, acid phosphatase (APH) assay; format: cell-based, human; settings: 72 h
Description: The in vitro antitumor activity of the newly developed Ag(I) derivatives was also assayed in 3D cell culture models of SCLC cells. Even if the 2D cell cultures are the most employed assays for in vitro screening due to the low cost, simplicity and reliability, two-dimensional methods are unable to reproduce the properties of in vivo solid tumors. In contrast, 3D cell cultures are much more efficient in closely mimicking the heterogeneity and complexity of the tumor mass and therefore are more predictive for in vivo results than conventional 2D cell cultures. On these bases, we tested the activity of the Ag(I) complexes on spheroids obtained from U1285 cells, which were proven to be highly sensitive to their in vitro antitumor activity. SCLC spheroids were treated with the investigated compounds for 72 h, and cell viability was assessed by means of the acid phosphatase (APH) assay.
Spheroids from U1285 cells (3 × 10^3 cells/well) were treated for 72 h with increasing concentrations of tested compounds. The growth inhibitory effect was evaluated by means of the APH assay. IC50 values were calculated from the dose–survival curves by the four-parameter logistic model (p < 0.05). S.D. = standard deviation.
Spheroid cultures were obtained by seeding 2.5 × 10^3 U1285 cancer cells/well in a round-bottom non-treated tissue culture 96-well plate (Greiner Bio-one, Kremsmünster, Austria) in phenol red free RPMI-1640 medium (Sigma Chemical Co., St. Louis, MO, USA) containing 10% fetal calf serum and supplemented with 20% methyl cellulose stock solution.
An APH modified assay was used for determining cell viability in 3D spheroids, as previously described. […] The inhibition of the cell growth induced by the tested complexes was detected by measuring the absorbance of each well at 405 nm, using a Bio-Rad 680 microplate reader. Mean absorbance for each drug dose was expressed as a percentage of the control untreated well absorbance (T/C) and plotted vs. drug concentration. […]

SMILES | IC50 ([1]; Homo sapiens) | IC50 [2] | IC50 ([3]; Homo sapiens, A-431) | IC50 ([4]; Homo sapiens) | IC50 ([5]; Homo sapiens) | IC50 ([6]; Homo sapiens) | IC50 ([7]; Homo sapiens) | IC50 [8] | decrease of TrxR enzyme activity [9] | IC50 [1] | IC50 [3] | IC50 [4] | IC50 [5] | IC50 [6] | IC50 [7] | IC50 [10] | IC50 ([10]; Homo sapiens)
c1ccc(P(c2ccccc2)c2ccccc2)cc1 [PPh3, triphenylphosphine, reference compound] | > 50 µM | > 50 µM | 47.5 ± 1.1 µM | > 50 µM | > 50 µM | > 50 µM | > 50 µM | > 100 µM |  |  |  |  |  |  |  |  | 
C1N2CN3CN1CP(C2)C3 [PTA, 1,3,5-triaza-7-phosphaadamantane, reference compound] | > 100 µM | > 100 µM | > 100 µM | > 100 µM | > 100 µM | > 100 µM | > 100 µM | > 100 µM |  |  |  |  |  |  |  |  | 
CC(=O)OC[C@H]1O[C@@H]([S-])[C@H](OC(C)=O)[C@@H](OC(C)=O)[C@@H]1OC(C)=O.CCP(CC)CC.[Au+] [auranofin, reference compound] |  |  |  |  |  |  |  |  | 62% |  |  |  |  |  |  |  | 
N.N.[Cl][Pt][Cl] [cisplatin, reference compound] |  |  |  |  |  |  |  |  |  | 15.3 ± 2.6 µM | 2.1 ± 0.9 µM | 9.6 ± 1.2 µM | 30.5 ± 2.6 µM | 2.2 ± 1 µM | 30.5 ± 2.6 µM | 65.4 ± 1.4 µM | 
COC(=O)C(n1cccn1)n1cccn1 [ligand 1, [HC(pz)2COOCH3]] | > 50 µM | > 50 µM | > 50 µM | > 50 µM | > 50 µM | > 50 µM | > 50 µM | > 50 µM |  |  |  |  |  |  |  |  | > 100 µM
COC(=O)C(n1nc(C)cc1C)n1nc(C)cc1C [ligand 2, [HC(pz^Me2)2COOCH3]] | > 50 µM | > 50 µM | > 50 µM | > 50 µM | > 50 µM | > 50 µM | > 50 µM | > 50 µM |  |  |  |  |  |  |  |  | > 100 µM
